In one series the test system is calcium-starved rats. Description: Test of the degree of absorption of Ca-supplying agents in calcium-starved rats. The note with it: for Length of fibula / Weight of fibula: Ca-starved rats, Ca-supplying agent orally for one week with Ca-free diet. The procedure:
3-week old Sprague-Dawley male rats (Daehan Biolink Co., Ltd., Korea) were employed for the present experiment after adjustment to an elementary diet These rats were divided into a normal group and an experimental group. The diet for the normal group (“normal diet”) was prepared based upon AIN-76 diet composition, whereas the diet for the experimental group (“Ca-flee diet” or “experimental diet”) was prepared by replacing a mineral mixture in the normal diet composition with a Ca deficient mineral mixture. […] These Ca-supplying agents were orally administered to each group along with the Ca-free diet for one week before the rats were sacrificed.
The concentration of Ca-supplying agent in the oral administration was ⅓ of the concentration of calcium in AIN-76 mineral mixture, which corresponds to 10 times the recommended amount for adult males. 3× distilled water was used for preparation of the experimental diet and was also was fed to rats for maintenance. The compositions of diets administered to the normal group and experimental groups, respectively, are described in TABLE 8 as below.
The abdomens of the rats were cut open under ether anesthesia, then blood was harvested from abdominal aorta, and major organs such as liver, kidney, spleen, etc. were […], followed by the extraction of fibula. The blood was centrifuged at 3000 rpm for 10 minutes to separate serum. Each organ and bone was trimmed and washed with normal saline and moisture on the surface thereof was removed to measure the weight and length thereof.
The content of calcium in serum and urine was measured by Calcium Reagent Arsenazo III kit (Sigma Corp., U.S.A). In order to measure the content of calcium in feces, the feces (sample) was put in a Pyrex beaker and the weight thereof was measured to 0.1 mg unit, then 5 ml of HNO3 and 2 ml of H2O2 were added and the beaker was left uncovered on a hot plate. The acid-digested sample was cooled and 2 ml of H2O2 was added thereto, followed by heating. Next, the acid was sufficiently volatilized to make the concentration of HNO3 to 1-5%, followed by the analysis with ICP-AES (inductively Coupled Plasma Atomic Emission Spectrometer). The condition for analysis is given below. • Model: Jobin Yvon 138 Ultrace • Source: Argon plasma (6000 K) • Spectral range: 160-800 nm • Resolution: 0.005 nm (UV) • Detection limit: 1×ppb˜100×ppb • Wavelength for analysis: 393.366 nm 3. Effect On Weight of Major Organs

Another series relates to Fe-starved rats. Description: Effect of Fe-supplying agents on the absorption of Fe in Fe-starved rats. The protocol:
3-week old Sprague-Dawley male rats (Daehan Biolink Co., Ltd., Korea) were employed for the present experiment after application of an elementary diet for one week. These rats were divided into a normal group and an experimental group. The diet for the normal group (“normal diet”) was prepared based upon AIN-76 diet composition, whereas the diet for the experimental group (“Fe-free diet” or “experimental diet”) was prepared by replacing a mineral mixture in the normal diet composition with a Fe-deficient mineral mixture. […] These Fe-supplying agents were orally administered to rats along with the experimental diet for one week before the rats were sacrificed.
The concentration of Fe-supplying agent for the oral administration was 10 times the recommended amount for adult males. 3× distilled water was used for preparation of the experimental diet and was fed to rats for maintenance. The compositions of diets administered to the normal group and experimental group, respectively, are described in TABLE 14 below.
Rats were adapted to a cage for one week before the start of the experiment, and their feces were collected for a final 3 days. On the final day, the abdomen was cut open under ether anesthesia, then blood was harvested from abdominal aorta, and major organs such as liver, kidney, spleen, etc. were extracted. […] Each organ was trimmed and washed with normal saline, then moisture on the surface thereof was removed to measure the weight and length.
CBC (Complete Blood Count: Red blood cell; RBC, white blood cell; WBC, Hematocrits; HCT, Hemoglobin; Hb) was measured from the anticoagulated blood, and IRON and TIBC Total Iron Binding Capacity) were measured from the blood serum. CBC was measured by an automatic analyzer (ADVIA 120, Bayer, U.S.A). As reagents, Isoton III (Beckman Coulter, U.S.A), Coulter clenz (Beckman Coulter), Lyse S III (Beckman Coulter), 4% sodium hypochloride-solution (Beckman Coulter) and 4C-plus (Beckman Coulter), Scatter Pak (Beckman Coulter) were used.
All data obtained in the present experiment were expressed with the mean standard error using the SAS program. T-test in each group was carried out at a range of P<0.05 by Duncan's multiple comparison test.

Series [1] can be described thus: Stability of amino acid chelate on storage in aqueous solutions. The note with it: distilled water and buffer at pH 3, 5, 7, 9, commercial beverages, cosmetics, ALGI; stored at 4, 25 and 50° C. for 3 months. It is filed as physicochemical. The protocol: The following experiment was carried out to ascertain the stability of amino acid chelate compound, obtained in EXAMPLE 1, on its storage in an aqueous solution for a long time.
• 1) preparation of samples by adding the above amino acid chelate compound into distilled water adjusted to pH 3, 5, 7 and 9, respectively. • 2) preparation of samples by adding the above amino acid chelate compound into solutions adjusted to pH 3, 5, 7 and 9 using buffer, respectively. • 3) preparation of samples by adding the above amino acid chelate compound into selected commercially available beverages (MIEROFIBER® (Hyundai Pharm., Korea), BACCHUS® (Donga Pharm., Korea) and orange juice (HaeTae Beverage Corp., Korea)), respectively. • 4) preparation of samples by adding the above amino acid chelate compound into selected commercially available cosmetics (ISA KNOX® (LG Chemical Corp., Korea), MAMONDE® (AmorePacific Corp., Korea)) • 5) preparation of samples by adding the above amino acid chelate compound into ALGI® (GG Tech. Co. Ltd., Korea) as a plant growth-accelerating agent
The above samples were stored at 4, 25 and 50° C., respectively, and then tested for any precipitation or change in pH. […]

[2] abbreviates: Fe-starved rats, oral for one week.

For `O=C([O-])[O-].[Ca+2]` [CaCO3], in the series on calcium-starved rats, the Length of fibula is given as 30.03 ± 1.10 mm and the Weight of fibula was found to be 0.332 ± 0.033 g. Besides, in the series with calcium-starved rats (rat, in vivo, po), the “Concentration of calcium in serum” value amounted to 9.13 ± 0.21 mg/dL, the “Concentration of calcium in urine” value came to 0.22 ± 0.01 mg/dL, the “Concentration of serum-calcium in blood collected from eyeball” value is 8.52 ± 0.27 mg/dL and the Kidney weight turned out to be 8.60 ± 0.40 mg/BW. Moreover, the Spleen weight in the series with calcium-starved rats (rat, in vivo, po) amounted to 3.00 ± 0.00 mg/BW.
For the compound Heme iron, in the series with Fe-starved rats (setting [2]), the HCT was found to be 36.11 ± 0.89%, the RBC is 7.01 ± 0.16 ×10^6/mm^3, the “TIBC (total iron binding capacity) in serum” value worked out at 824.63 ± 11.60 µg/dL and the “TS (transferrin saturation)” value is reported as 17.07%. For the same compound, the WBC with Fe-starved rats (setting [2]) is given as 6.12 ± 0.37 ×10^3/mm^3. In addition, in the series with Fe-starved rats (rat, in vivo, po), the IRON in serum was 140.8. ± 25.55 μg/dl, the Kidney weight amounted to 7.20 ± 0.13 mg/BW and the Spleen weight is reported as 2.78 ± 0.15 mg/BW.
On to “Seaweed Calcium-Glutamic Acid Chelate [EXAMPLE 1]”, for which the “precipitation or change in pH” value in series [1] was “no precipitation or remarkable change in pH”.
As for calcium-aspartic acid chelate [Asp-Ca], in the series on calcium-starved rats, the Length of fibula is 30.88 ± 1.87 mm and the Weight of fibula amounted to 0.327 ± 0.031 g.
As for iron-aspartic acid chelate [Fe-Asp], in the series with Fe-starved rats (setting [2]), the RBC was 7.32 ± 0.35 ×10^6/mm^3, the “TIBC (total iron binding capacity) in serum” value was found to be 735.44 ± 9.30 µg/dL and the WBC is 6.02 ± 0.46 ×10^3/mm^3.
For the compound seaweed calcium [SW-Ca], in the series with calcium-starved rats (rat, in vivo, po), the “Concentration of calcium in serum” value was 10.44 ± 0.07 mg/dL, the “Concentration of calcium in urine” value was 0.32 ± 0.02 mg/dL, the Kidney weight turned out to be 8.20 ± 0.20 mg/BW and the Spleen weight is 3.00 ± 0.32 mg/BW.

The record behind these values is patent US7375243B2, “Method for preparation of amino acid chelate” (MD Bioalpha Co., Ltd., priority 2002, dated 2008).
